From US7410960B2, “Metal complexes and therapeutic uses thereof” (The University of Western Sydney, priority 2001, dated 2008)
Where “and” joins values, the source holds several entries; their conditions need not be identical. Equal values may be shown once. Read-outs that look alike come from different tables or passages of the source.

Legend:
KYSE 520 (esophagus) = experiment: Growth inhibition IC50, KYSE 520 (esophagus) cell line; format: cell-based; settings: value (standard deviation)
Description: (§1) When we compare the effect of changing the diamine from the non-chiral 1,2-diaminoethane (en) to the chiral ligands and 2S,3S-diaminobutane (2S,3S-bn) and 2R,3R-diaminobutane (2R,3R-bn) then the concentration inhibiting the exponential growth of cells to 50% is further reduction from 27.0 to 1.11 and 0.32 μM respectively.

A-427 (lung) = experiment: Growth inhibition IC50, A-427 (lung) cell line; format: cell-based; settings: value (standard deviation)
Description: as §1

LCLC-103H (lung) = experiment: Growth inhibition IC50, LCLC-103H (lung) cell line; format: cell-based; settings: value (standard deviation)
Description: as §1

5637 (bladder) = experiment: Growth inhibition IC50, 5637 (bladder) cell line; format: cell-based; settings: value (standard deviation)
Description: as §1

[1] = test system: L1210 mouse leukaemia cells; experiment: CC growth inhibition assay, L1210; format: cell-based; settings: Test CC, 40 μM highest dose tested
From the text: (§2) The data presented in Table3 is the results collected from the growth inhibition studies of selected compounds with the following cell lines: L1210 (mouse leukaemia cells), 2008 (human ovarian carcinoma cells), L1210/DDP and C13*5 (acquired cisplatin resistance) and SKOV-3 (intrinsic cisplatin resistance).

[2] = test system: L1210/DDP cisplatin-resistant cells; experiment: CC growth inhibition assay, L1210/DDP; format: cell-based, mouse; settings: Test CC, 40 μM highest dose tested
From the text: as §2

[3] = test system: 2008 human ovarian carcinoma cells; experiment: Sulphorhodamine B (SRB) growth inhibition assay, 2008; format: cell-based; settings: Test SRB
From the text: as §2

[4] = test system: C13*5 cisplatin-resistant cells; experiment: Sulphorhodamine B (SRB) growth inhibition assay, C13; format: cell-based, human; settings: Test SRB, acquired cisplatin resistance
From the text: as §2

[5] = test system: SKOV-3 cells (intrinsically resistant to cisplatin); experiment: Sulphorhodamine B (SRB) growth inhibition assay, SKOV-3; format: cell-based; settings: Test SRB, intrinsic cisplatin resistance
From the text: as §2

[6] = first run, read-out: IC50 5637 (bladder)
[7] = repeat run, read-out: IC50 5637 (bladder) Repeat
[8] = listed as [Pt(R,R-dach)(phen)](ClO4)2
[9] = listed as [Pt(R,R-bn)(phen)]Cl2
[10] = listed as [Pt(S,S-dach)(phen)](ClO4)2
[11] = listed as [Pt(S,S-bn)(phen)]Cl2

Row | Molecule | IC50 (KYSE 520 (esophagus)) [µM] | IC50 (A-427 (lung)) [µM] | IC50 (LCLC-103H (lung)) [µM] | IC50 (5637 (bladder); [6]) [µM] | IC50 (5637 (bladder); [7]) [µM] | also measured
1 | [Cl-].[Cl-].c1cc2ccc3ccc[n+]4c3c2[n+](c1)[Pt-2]41[NH2+]CC[NH2+]1 [[Pt(en)(phen)]Cl2, reference compound] | 49.1 | 24.1 | 41.2 | 27 | 23.7 | 
2 | N[C@@H]1CCCC[C@H]1N.[O-][Cl+3]([O-])([O-])[O-].[O-][Cl+3]([O-])([O-])[O-].[Pt+2].c1cnc2c(c1)ccc1cccnc12 [[Pt(phen)(R,R-dach)](ClO4)2, (1R,2R-cyclohexanediamine)(1,10-phenanthroline)platinum(II) cation] |  |  |  |  | 0.54 | IC50 [1, 8]: 1.4 µM and 1.6 µM; IC50 [2, 8]: 4.3 µM and 4.5 µM; IC50 [3, 8]: 3.3 µM and 3.1 µM; IC50 [4, 8]: 5.1 µM and 9.2 µM; IC50 [5, 8]: 3.3 µM and 3.6 µM
3 | NCCN.[Cl-].[Cl-].[Pt+2].c1cnc2c(c1)c1nccnc1c1cccnc12 [[Pt(en)(dpq)]Cl2] | 19.4 | 16.4 | 23.6 | 16.7 |  | 
4 | (N,N′-dimethyl-1R,2R-cyclohexanediamine)(1,10-phenanthroline)platinum(II) cation [[Pt(phen)(Me2-R,R-dach)](ClO4)2] |  |  |  |  | 23.6 | 
5 | (N,N′-dimethyl-1S,2S-cyclohexanediamine)(1,10-phenanthroline)platinum(II) cation [[Ptphen)(Me2-S,S-dach](ClO4)2] |  |  |  |  | 55.6 | IC50 ([1]; listed as [Pt(Me2—S,S-dach)(phen)](ClO4)2): 12 µM
6 | CC(N)C(C)N.[Cl-].[Cl-].[Pt+2].c1cnc2c(c1)ccc1cccnc12 [[Pt(2R,3R-bn)(phen)]Cl2] [(2R,3R-butanediamine)(1,10-phenanthroline)platinum(II) cation] | 0.67 | 0.54 | 0.78 | 0.32 | 0.43 | IC50 [1, 9]: 1.5 µM; IC50 [2, 9]: 2.5 µM and 1.9 µM; IC50 [4, 9]: 5.2 µM and 9 µM and 7.4 µM
7 | N[C@H]1CCCC[C@@H]1N.[O-][Cl+3]([O-])([O-])[O-].[O-][Cl+3]([O-])([O-])[O-].[Pt+2].c1cnc2c(c1)ccc1cccnc12 [[Pt(phen)(S,S-dach)](ClO4)2, (1S,2S-cyclohexanediamine)(1,10-phenanthroline)platinum(II) cation] |  |  |  |  | 0.15 | IC50 [1]: 0.13 µM; IC50 [2]: 0.28 ± 0.09 µM; IC50 [3, 10]: 0.37 µM and 0.45 µM; IC50 [4, 10]: 0.56 µM and 0.88 µM; IC50 [5, 10]: 0.31 µM and 0.42 µM
8 | CC(N)C(C)N.[Cl-].[Cl-].[Pt+2].c1cnc2c(c1)ccc1cccnc12 [[Pt(2S,3S-bn)(phen)]Cl2] [(2S,3S-butanediamine)(1,10-phenanthroline)platinum(II) cation] | 1.87 | 1.35 | 2.39 | 1.11 | 0.98 | IC50 [1, 11]: 3.8 µM and 3 µM; IC50 [2, 11]: 5.3 µM and 8 µM; IC50 [3, 11]: 7.2 µM and 11 µM; IC50 [4, 11]: 26 µM and 22 µM and 28 µM; IC50 [5, 11]: 9.8 µM and 9.2 µM and 12 µM
9 | N.N.[Cl][Pt][Cl] [CDDP, cis-diamminedichloroplatinum (II), reference compound] | 6.63 | 4.46 | 1.44 | 0.88 | 0.43 | 
10 | CC(N)C(C)N.[Cl-].[Cl-].[Pt+2].c1cnc2c(c1)ccc1cccnc12 [[Pt(meso-2,3-bn)(phen)]Cl2] [(2S,3R-butanediamine)(1,10-phenanthroline)platinum(II) cation] | 1.09 | 0.92 | 1.07 | 0.61 | 0.72 | 
